Patent US10501481B2, “Heterocyclic compounds and their use in preventing or treating bacterial infections” (priority 2015, dated 2019)

Tests used:
[1] = system: E. cloacae 260508 (TEM-1, CTX-M-15); assay: MIC broth microdilution, alone and synergy with ceftazidime
[2] = system: P. aeruginosa CIP107051 (TEM-24); assay: as above
[3] = system: K. oxytoca UFR21 (TEM-1, CTX-M-15, OXA-48); assay: as above
[4] = system: K. pneumoniae 6299 (TEM-1, SHV-11, OXA-163); assay: as above
[5] = system: E. coli UFR52 (TEM-1, SHV-12, IMP-8); assay: as above
E. cloacae P99 (AmpC) = assay: as above
[6] = system: E. coli UFR61O (TEM-1, KPC-2); assay: as above; conditions: strain UFR61O; compound fixed at 4 μg/mL
OXA-48 = molecular target: T1, OXA-48 (Klebsiella pneumoniae, UniProt Q6XEC0); assay: β-lactamase inhibitory activity, nitrocefin hydrolysis; format: biochemical
T1 construct: made in house; host or cells: E. coli
T1 sequence (Q6XEC0 23-265 limits assumed): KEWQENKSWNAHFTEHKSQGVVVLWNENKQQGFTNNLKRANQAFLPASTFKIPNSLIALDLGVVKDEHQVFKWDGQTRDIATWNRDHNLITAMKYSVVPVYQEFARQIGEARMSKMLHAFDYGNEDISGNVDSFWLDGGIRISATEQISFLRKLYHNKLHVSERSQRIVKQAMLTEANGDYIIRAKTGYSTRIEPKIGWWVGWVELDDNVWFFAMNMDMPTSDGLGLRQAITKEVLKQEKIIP
Method: (§1) Enzyme activity was monitored by spectrophotometric measurement of nitrocefin (NCF-TOKU-E, N005) hydrolysis at 485 nm, at room temperature and in assay buffer A: 100 mM Phosphate pH7, 2% glycerol and 0.1 mg/mL Bovine serum albumin (Sigma, B4287). […] To a transparent polystyrene plate (Corning, 3628) were added in each well 5 μL DMSO or inhibitor dilutions in DMSO and 80 μL enzyme in buffer A. Plates were immediately read at 485 nm in a microplate spectrophotometer (BioTek, PowerWave HT) to enable background subtraction. After 30 min of pre-incubation at room temperature, 15 μL of NCF (200 μM final) were finally added in each well. Final enzyme concentrations were 0.1 nM (TEM-1), 0.075 nM (SHV-1), 0.4 nM (CTX-M-15), 1 nM (KPC-2), 0.2 nM (P99 AmpC), 0.2 nM (CMY-37), 0.4 nM (AmpC P. aeruginosa), 0.2 nM (OXA-1), 1.2 nM (OXA-11), 0.4 nM (OXA-15) and 0.3 nM (OXA-48). After 20 min incubation at room temperature, plates were once again read at 485 nm. Enzyme activity was obtained by subtracting the final signal by the background, and was converted to enzyme inhibition using non inhibited wells. IC50 curves were fitted to a classical Langmuir equilibrium model with Hill slope using XLFIT (IDBS).

SHV-1 = molecular target: T2, SHV-1 (Klebsiella pneumoniae, UniProt P0AD64); assay: as above; format: biochemical
T2 construct: made in house; host or cells: E. coli
T2 sequence (P0AD64 22-286): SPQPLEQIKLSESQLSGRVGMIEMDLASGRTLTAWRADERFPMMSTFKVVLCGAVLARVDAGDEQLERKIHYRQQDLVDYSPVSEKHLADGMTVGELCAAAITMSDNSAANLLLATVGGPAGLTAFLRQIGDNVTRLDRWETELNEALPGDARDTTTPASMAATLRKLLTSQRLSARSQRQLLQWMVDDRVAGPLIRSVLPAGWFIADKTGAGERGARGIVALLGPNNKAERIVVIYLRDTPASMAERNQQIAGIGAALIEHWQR
Method: as §1

[7] = system: E. coli 190317 (TEM-1, SHV-12, CTX-M-15, OXA-1); assay: MIC broth microdilution, alone and synergy with ceftazidime; conditions: strain 190317; compound fixed at 4 μg/mL
KPC-2 = molecular target: T3, KPC-2 (Klebsiella pneumoniae, UniProt Q9F663); assay: β-lactamase inhibitory activity, nitrocefin hydrolysis; format: biochemical
T3 construct: made in house; host or cells: E. coli
T3 sequence (Q9F663 25-293 limits assumed): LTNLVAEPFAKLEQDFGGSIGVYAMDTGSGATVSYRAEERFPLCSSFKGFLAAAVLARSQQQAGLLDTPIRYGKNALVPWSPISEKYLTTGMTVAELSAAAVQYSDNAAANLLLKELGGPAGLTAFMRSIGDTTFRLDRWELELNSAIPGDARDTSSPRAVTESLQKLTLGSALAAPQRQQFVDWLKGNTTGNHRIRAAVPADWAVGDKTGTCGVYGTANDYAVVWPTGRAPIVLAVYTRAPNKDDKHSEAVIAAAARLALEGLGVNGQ
Method: as §1

OXA-1 = molecular target: T4, OXA-1 (Escherichia coli, UniProt P13661); assay: as above; format: biochemical
T4 construct: made in house; host or cells: E. coli
T4 sequence (P13661 26-276): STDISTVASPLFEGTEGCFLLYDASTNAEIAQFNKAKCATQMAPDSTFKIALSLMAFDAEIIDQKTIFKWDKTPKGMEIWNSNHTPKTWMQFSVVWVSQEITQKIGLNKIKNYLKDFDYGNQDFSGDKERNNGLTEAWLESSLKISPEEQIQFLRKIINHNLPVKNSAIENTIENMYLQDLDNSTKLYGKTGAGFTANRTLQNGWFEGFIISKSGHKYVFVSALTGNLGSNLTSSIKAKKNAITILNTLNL
Method: as §1

E. coli RGN238 (OXA-1) = assay: MIC broth microdilution, alone and synergy with ceftazidime
[8] = system: E. cloacae UFR38 (CTX-M-15, NDM-1); assay: as above
[9] = system: K. pneumoniae UFR24 (TEM-1, SHV-2, SHV-11, OXA-1, OXA-48, OXA-47); assay: as above; conditions: strain UFR24; compound fixed at 4 μg/mL
[10] = system: P. aeruginosa CIP105250 (OXA-15); assay: MIC broth microdilution, compounds alone; conditions: Pseudomonas aeruginosa, CIP105250, read-out: MIC compounds of the invention alone
AmpC P. aeruginosa = AmpC P. aeruginosa (Pseudomonas aeruginosa, UniProt P24735); assay: biochemical
AmpC P. aeruginosa, sequence (P24735 27-397): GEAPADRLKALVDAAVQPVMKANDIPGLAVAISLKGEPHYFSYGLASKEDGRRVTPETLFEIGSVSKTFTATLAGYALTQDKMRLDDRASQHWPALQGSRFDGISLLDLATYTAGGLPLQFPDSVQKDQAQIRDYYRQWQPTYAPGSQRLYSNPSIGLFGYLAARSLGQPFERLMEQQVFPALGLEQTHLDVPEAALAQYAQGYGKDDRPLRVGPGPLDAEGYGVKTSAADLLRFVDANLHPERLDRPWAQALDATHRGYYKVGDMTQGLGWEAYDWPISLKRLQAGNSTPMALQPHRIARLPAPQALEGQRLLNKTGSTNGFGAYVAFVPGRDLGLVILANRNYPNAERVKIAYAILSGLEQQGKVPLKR
Method: Enzyme activity was monitored by spectrophotometric measurement of nitrocefin (NCF-TOKU-E, N005) hydrolysis at 485 nm, at room temperature and in assay buffer A: 100 mM Phosphate pH7, 2% glycerol and 0.1 mg/mL Bovine serum albumin (Sigma, B4287). Enzymes were cloned in E. coli expression vector, expressed and purified in house using classical procedures. To a transparent polystyrene plate (Corning, 3628) were added in each well 5 μL DMSO or inhibitor dilutions in DMSO and 80 μL enzyme in buffer A. Plates were immediately read at 485 nm in a microplate spectrophotometer (BioTek, PowerWave HT) to enable background subtraction. After 30 min of pre-incubation at room temperature, 15 μL of NCF (200 μM final) were finally added in each well. Final enzyme concentrations were 0.1 nM (TEM-1), 0.075 nM (SHV-1), 0.4 nM (CTX-M-15), 1 nM (KPC-2), 0.2 nM (P99 AmpC), 0.2 nM (CMY-37), 0.4 nM (AmpC P. aeruginosa), 0.2 nM (OXA-1), 1.2 nM (OXA-11), 0.4 nM (OXA-15) and 0.3 nM (OXA-48). After 20 min incubation at room temperature, plates were once again read at 485 nm. Enzyme activity was obtained by subtracting the final signal by the background, and was converted to enzyme inhibition using non inhibited wells. IC50 curves were fitted to a classical Langmuir equilibrium model with Hill slope using XLFIT (IDBS).

P99 AmpC = molecular target: T5, P99 AmpC (Enterobacter cloacae, UniProt P05364); assay: β-lactamase inhibitory activity, nitrocefin hydrolysis; format: biochemical; conditions: class (C); 30 min pre-incubation; nitrocefin 200 μM
T5 construct: made in house; host or cells: E. coli
T5 sequence (P05364 21-381): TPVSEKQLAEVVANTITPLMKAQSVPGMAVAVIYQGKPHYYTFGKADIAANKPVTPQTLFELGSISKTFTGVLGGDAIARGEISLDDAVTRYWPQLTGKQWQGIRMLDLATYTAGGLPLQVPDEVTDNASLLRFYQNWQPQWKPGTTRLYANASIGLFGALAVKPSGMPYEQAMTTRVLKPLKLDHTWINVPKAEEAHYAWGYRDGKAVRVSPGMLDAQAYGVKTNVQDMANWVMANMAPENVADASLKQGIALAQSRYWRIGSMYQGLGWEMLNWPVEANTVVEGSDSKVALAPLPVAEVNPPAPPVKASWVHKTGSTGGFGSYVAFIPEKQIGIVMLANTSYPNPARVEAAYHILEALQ
Method: as §1

[11] = system: K. pneumoniae 160143 (TEM-1, SHV-1, CTX-M-15, KPC-2, OXA-1); assay: MIC broth microdilution, alone and synergy with ceftazidime
[12] = system: K. pneumoniae UFR77 (CMY-2); assay: as above
[13] = system: K. pneumoniae 200047 (TEM-1, SHV-32, CTX-M-15, OXA-1); assay: as above
[14] = system: E. coli UFR32 (TEM-1, VEB-1, OXA-10); assay: as above; conditions: strain UFR32; compound fixed at 4 μg/mL
[15] = system: K. pneumoniae UFR68 (TEM-1, SHV-11, CTX-M-15, KPC-3); assay: as above
[16] = Enterobacter cloacae, read-out: MIC compounds of the invention alone
[17] = Klebsiella pneumoniae, read-out: MIC compounds of the invention alone
[18] = Escherichia coli, read-out: MIC compounds of the invention alone

O=C1N2Cc3c(sc(=O)n3CCO)C(C2)N1OS(=O)(=O)[O-].[Na+] (centres unmarked) [Example 5, Sodium [5-(2-hydroxyethyl)-4,9-dioxo-3-thia-5,8,10-triaza-tricyclo[6.2.1.0^2.6]undec-2(6)-en-10-yl) sulfate]
MIC [1, 16]: 4 mg/L | MIC of CAZ in combination with compound at 4 μg/mL ([1]; strain 260508, compound fixed at 4 μg/mL): <0.25 mg/L | MIC ([2]; Pseudomonas aeruginosa, CIP107051, read-out: MIC compounds of the invention alone): > 32 mg/L | MIC of CAZ in combination with compound at 4 μg/mL ([2]; strain CIP107051, compound fixed at 4 μg/mL): 4 mg/L | MIC ([3]; Klebsiella oxytoca, read-out: MIC compounds of the invention alone): 4 mg/L | MIC of CAZ in combination with compound at 4 μg/mL ([3]; strain UFR21, compound fixed at 4 μg/mL): <0.25 mg/L | MIC [4, 17]: 8 mg/L | MIC of CAZ in combination with compound at 4 μg/mL ([4]; strain 6299, compound fixed at 4 μg/mL): ≤0.125 mg/L | MIC [5, 18]: 0.5 mg/L | MIC of CAZ in combination with compound at 4 μg/mL ([5]; strain UFR52, compound fixed at 4 μg/mL): <0.25 mg/L | MIC (E. cloacae P99 (AmpC); [16]): 8 mg/L | MIC of CAZ in combination with compound at 4 μg/mL (E. cloacae P99 (AmpC); strain P99, compound fixed at 4 μg/mL): 0.25 mg/L | MIC of CAZ in combination with compound at 4 μg/mL [6]: <0.25 mg/L | IC50 (OXA-48): 0.00079 µM | IC50 (SHV-1): 0.006 µM | MIC of CAZ in combination with compound at 4 μg/mL [7]: <0.25 mg/L | IC50 (KPC-2): 0.0017 µM | IC50 (OXA-1): 0.31 µM | MIC (E. coli RGN238 (OXA-1); [18]): 1 mg/L | MIC of CAZ in combination with compound at 4 μg/mL (E. coli RGN238 (OXA-1); strain RGN238, compound fixed at 4 μg/mL): <0.25 mg/L | MIC [8, 16]: 2 mg/L | MIC of CAZ in combination with compound at 4 μg/mL ([8]; strain UFR38, compound fixed at 4 μg/mL): <0.25 mg/L | MIC of CAZ in combination with compound at 4 μg/mL [9]: <0.25 mg/L | MIC [10]: > 32 mg/L | IC50 (AmpC P. aeruginosa): 0.37 µM | IC50 (P99 AmpC): 0.024 µM | MIC [11, 17]: 8 mg/L | MIC of CAZ in combination with compound at 4 μg/mL ([11]; strain 160143, compound fixed at 4 μg/mL): <0.25 mg/L | MIC [12, 17]: 4 mg/L | MIC of CAZ in combination with compound at 4 μg/mL ([12]; strain UFR77, compound fixed at 4 μg/mL): <0.25 mg/L | MIC [13, 17]: 2 mg/L | MIC of CAZ in combination with compound at 4 μg/mL ([13]; strain 200047, compound fixed at 4 μg/mL): <0.25 mg/L | MIC of CAZ in combination with compound at 4 μg/mL [14]: <0.25 mg/L | MIC [15, 17]: 8 mg/L | MIC of CAZ in combination with compound at 4 μg/mL ([15]; strain UFR68, compound fixed at 4 μg/mL): ≤0.25 mg/L
